Consider five compounds from patent US4285940A, “Cephalosporin derivatives, and antibacterial drugs comprising said derivatives” (Eisai Co., Ltd., priority 1979, dated 1981).

The test system of series [1] is Pseudomonas aeruginosa EP-172. Nature of the series: MIC by standard agar dilution method of the Japan Society of Chemotherapy. In kind it is cell-based. The note with it: EP172, Mueller Hinton agar, 18 hours at 37° C., Examples 1, 2, 4 as sodium salts, Example 5 as free acid. On the procedure: (§1) Minimal inhibitory concentration (MIC) was determined by the standard agar dilution method of the Japan Society of Chemotherapy.
(§2) The compounds described in Examples 1, 2 and 4 were dissolved in sterilized water; the compound described in Example 5 was dissolved in acetone-water (1:1); and the control compound, cephaloglycin, was dissolved in a 3% sodium hydrogen carbonate solution.
(§3) Serial two-fold dilutions were made from the above solutions.
(§4) One-ml aliquots of each dilution were mixed with 9 ml of Mueller Hinton agar in petri-dishes to make agar plates containing the compound at serially diluted concentrations. After agar hardened, plates were put in an incubator at 37° C. for 1.5-2 hours with the lids slightly open to evaporate acetone off the plates.
(§5) Test organisms were grown for 18 hours at 37° C. in Trypticase Soy broth and diluted in saline to approximately 10^6 colony forming units per ml. A loopful of each cell suspension was applied on the agar plate mentioned above and the plates were incubated for 18 hours at 37° C. before MIC was determined.
(§6) MIC values of the compounds described in Examples 1, 2 and 4 were determined as their sodium salts and the compound described in Example 5 was determined as a free carboxylic acid.
In general terms: In agar dilution the substance is mixed into plates at graded concentrations.

Series [2] concerns Proteus morganii EP-14. The series is described as above. In kind it is cell-based. The note with it: Morganella morganii, EP14, Mueller Hinton agar, 18 hours at 37° C., Examples 1, 2, 4 as sodium salts, Example 5 as free acid. On the procedure:
as §1, §2, §3, §4, §5, §6

For series [3], the system named is Serratia marcescens ES-75. The description is as above. In kind it is cell-based. The settings on record: ES75, Mueller Hinton agar, 18 hours at 37° C., Examples 1, 2, 4 as sodium salts, Example 5 as free acid. How it is done: as §1, §2, §3, §4, §5, §6
The subject of series [4] is Staphylococcus aureus 209P. The series is described as above. In kind it is cell-based. The settings on record: Mueller Hinton agar, 18 hours at 37° C., Examples 1, 2, 4 as sodium salts, Example 5 as free acid. How it is done:
as §1, §2, §3, §4, §5, §6

Series [5] deals with Escherichia coli NIHJ. Described as above. It counts as cell-based. The note with it: Mueller Hinton agar, 18 hours at 37° C., Examples 1, 2, 4 as sodium salts, Example 5 as free acid. On the procedure: as §1, §2, §3, §4, §5, §6
The test system of series [6] is Klebsiella pneumoniae EK-6. The description is as above. In kind it is cell-based. The note with it: EK6, Mueller Hinton agar, 18 hours at 37° C., Examples 1, 2, 4 as sodium salts, Example 5 as free acid. On the procedure: as §1, §2, §3, §4, §5, §6
Series [7] is described as follows: acute toxicity (mouse, oral administration). The note with it: in vivo.

`CC(=O)OCC1=C(C(=O)O)N2C(=O)[C@@H](NC(=O)[C@H](N)c3ccccc3)[C@H]2SC1` [Cephaloglycin, cephaloglycin, reference compound]: the MIC – broadly, the least concentration at which growth counts as inhibited – in series [1] was 100 µg/mL; in series [2], 25 µg/mL; in series [3], 100 µg/mL; in series [4], 0.8 µg/mL; in series [5] it was 3.13 µg/mL; in series [6] it was 1.56 µg/mL.

With `CC(=O)OCC1=C(C(=O)O)N2C(=O)[C@@H](NC(=O)[C@H](NC(=O)c3coc4cc(O)c(O)cc4c3=O)c3ccc(O)cc3)[C@H]2SC1` [Example 1, 7β-[D-2-(6,7-Dihydroxychromone-3-carboxamido)-2-(4-hydroxyphenyl)acetamido]-3-acetoxymethyl-3-cephem-4-carboxylic acid], in series [7], the LD50 – broadly, the dose expected to kill half of the subjects tested – was above 5000 mg/kg. The MIC came to 3.13 µg/mL in series [1]; 50 µg/mL in series [2]; 3.13 µg/mL in series [3]; 3.13 µg/mL in series [4]; 3.13 µg/mL in series [5]; 0.2 µg/mL in series [6].

Take `CC(=O)OCC1=C(C(=O)O)N2C(=O)[C@@H](NC(=O)[C@H](NC(=O)c3coc4cc(OC(C)=O)c(OC(C)=O)cc4c3=O)c3ccc(O)cc3)[C@H]2SC1` [Example 2, 7β-[D-2-(6,7-Diacetoxychromone-3-carboxamido)-2-(4-hydroxyphenyl)acetamido]-3-acetoxymethyl-3-cephem-4-carboxylic acid]: the LD50 in series [7] was above 5000 mg/kg. The MIC came out at 3.13 µg/mL in series [1]; 100 µg/mL in series [2]; 6.25 µg/mL in series [3]; 6.25 µg/mL in series [4]; 12.5 µg/mL in series [5]; 0.2 µg/mL in series [6].

For `CC(=O)OCC1=C(C(=O)O)N2C(=O)[C@@H](NC(=O)[C@H](NC(=O)c3coc4c(O)c(O)ccc4c3=O)c3ccc(O)cc3)[C@H]2SC1` [Example 4, 7β-[D-2-(7,8-Dihydroxychromone-3-carboxamido)-2-(4-hydroxyphenyl)acetamido]-3-acetoxymethyl-3-cephem-4-carboxylic acid], the MIC in series [1] came to 1.56 µg/mL; in series [2] it was 100 µg/mL; in series [3], 100 µg/mL; in series [4], 0.8 µg/mL; in series [5], 12.5 µg/mL; in series [6] it was 0.2 µg/mL.

As for `CC(=O)OCC1=C(C(=O)O)N2C(=O)[C@@H](NC(=O)[C@H](NC(=O)c3coc4c(OC(C)=O)c(OC(C)=O)ccc4c3=O)c3ccc(O)cc3)[C@H]2SC1` [Example 5, 7β-[D-2-(7,8-Diacetoxychromone-3-carboxamido)-2-(4-hydroxyphenyl)acetamido]-3-acetoxymethyl-3-cephem-4-carboxylic acid], the MIC in series [1] is 3.13 µg/mL; in series [2], 25 µg/mL; in series [3], 25 µg/mL; in series [4], 6.25 µg/mL; in series [5] it was 3.13 µg/mL; in series [6], 0.4 µg/mL.
